{"source": "PubChem BioAssay AID1996", "data": [{"conditions": "buffer; pH 7.4; 200.0 µM", "units": {"solubility kinetic": "µg/mL"}, "values": [{"smiles": "CC(=O)Nc1ccc(S(=O)(=O)N(C)CC(=O)OCC(=O)c2ccc[nH]2)cc1", "solubility kinetic": "> 59"}, {"smiles": "O=C(COC(=O)/C=C/c1cccc(Cl)c1)Nc1c(F)cccc1F", "solubility kinetic": 6.3}, {"smiles": "COc1cc(C(=O)O)nc(OC)n1", "solubility kinetic": "> 27.6"}, {"smiles": "CNc1ccc(C(=O)c2ccccc2C(=O)O)cc1[N+](=O)[O-]", "solubility kinetic": "> 45"}, {"smiles": "CCc1ccc(C(=O)Nc2ccc3nc(C)ccc3c2)cc1", "solubility kinetic": "< 0.3"}, {"smiles": "N#Cc1cc2c(=O)n3ccccc3nc2n(-c2ccc(Cl)cc2)c1=O", "solubility kinetic": 1.4}, {"smiles": "O=[N+]([O-])c1cnccc1Nc1ccc(Cl)cc1", "solubility kinetic": 16.6}, {"smiles": "O=S(=O)(c1ccccc1)N(CC1CO1)c1ccccc1", "note": "(stereo not given)", "solubility kinetic": "> 43.4"}, {"smiles": "O=C(NC1CC1)[C@@H]1CSC2c3ccccc3C(=O)N21", "note": "(stereo not given in full)", "solubility kinetic": "> 41.2"}, {"smiles": "COC(=O)CC(NC(=O)c1cccs1)c1ccc(OC)c(OC)c1", "note": "(stereo not given)", "solubility kinetic": "> 52.4"}, {"smiles": "Cc1cc(C)cc(NS(=O)(=O)c2ccc(NC(=O)c3ccccc3C(=O)O)cc2)c1", "solubility kinetic": 54.2}, {"smiles": "Cc1ccc(/C=C/C(=O)O)cc1S(=O)(=O)N1CCC(Cc2ccccc2)CC1", "solubility kinetic": 53.2}, {"smiles": "COc1ccc(Cl)cc1Nc1nc(-c2cccnc2)cs1", "solubility kinetic": "< 0.2"}, {"smiles": "CC(C)NC(=O)c1sc2c(c1C(=O)Nc1cccnc1)CCCC2", "solubility kinetic": 6.4}, {"smiles": "CCOc1ncccc1C(=O)NC(C)CCc1ccccc1", "note": "(stereo not given)", "solubility kinetic": 41}, {"smiles": "O=C(C1CCCO1)N(c1ccc(F)cc1)C1C=CS(=O)(=O)C1", "note": "(stereo not given)", "solubility kinetic": "> 48.8"}, {"smiles": "CCOC(=O)Nc1cccc(OCC(=O)Nc2ccc3c(c2)CCC3)c1", "solubility kinetic": 5.2}, {"smiles": "COc1ccccc1C(=O)NC(=O)CSc1cccc[n+]1[O-]", "solubility kinetic": "> 47.8"}, {"smiles": "CC(OC(=O)CCc1nc2ccccc2[nH]c1=O)c1ccccc1", "note": "(stereo not given)", "solubility kinetic": 11.9}, {"smiles": "Cn1ccnc1SCC(=O)c1ccc2ccccc2c1", "solubility kinetic": 35.8}, {"smiles": "CCN(CC(=O)NC1CC1)S(=O)(=O)c1ccccc1", "solubility kinetic": "> 42.4"}, {"smiles": "CCc1nc2ccccc2c(C(=O)NCc2ccc(OC)cc2)c1C", "solubility kinetic": 47.9}, {"smiles": "O=[N+]([O-])c1ccc(S(=O)(=O)Nc2ccc3c(c2)OCCO3)cc1", "solubility kinetic": 45.2}, {"smiles": "O=C(NC(=O)N1CCC2(CC1)OCCO2)c1ccc(Cl)cc1", "solubility kinetic": "> 48.7"}, {"smiles": "O=C1C2CCCN2C(=S)N1C1CCCCC1", "note": "(stereo not given)", "solubility kinetic": "> 35.8"}, {"smiles": "CC(=O)Nc1ccc(OCC(=O)NCc2ccc(C)cc2)cc1", "solubility kinetic": "> 46.9"}, {"smiles": "Cc1sc2ncnc(N3CCC(C(=O)Nc4ccc(OC(F)F)c(Cl)c4)CC3)c2c1C", "solubility kinetic": 5.7}, {"smiles": "COc1cccc(CNC(=O)CCNC(=O)c2ccccc2OC)c1", "solubility kinetic": "> 51.4"}, {"smiles": "Fc1ccccc1CSCc1nc2ccccc2[nH]1", "solubility kinetic": 36.6}, {"smiles": "Cc1ccnc(NCc2cc(C)ccc2O)c1", "solubility kinetic": 6}, {"smiles": "COc1ccc(CNc2nc(C)cc(C)c2C#N)cc1", "solubility kinetic": 0.6}, {"smiles": "Cc1cc(=O)[nH]c2c3ccccc3nn12", "solubility kinetic": "> 29.9"}, {"smiles": "CCNC(=S)N/N=C(\\C)c1cccc(OC)c1", "solubility kinetic": "> 37.7"}, {"smiles": "Cc1cc2cc(CNC(=O)COc3ccccc3)ccc2n1C", "solubility kinetic": 5.2}, {"smiles": "O=C(c1cc2c(s1)-c1ccccc1S(=O)(=O)C2)N1CCCC1", "solubility kinetic": 47.6}, {"smiles": "CCOc1ccc(CCNC(=O)/C=C/c2ccco2)cc1OCC", "solubility kinetic": "> 49.4"}, {"smiles": "COC(=O)Cc1ccc(NC(=S)NCCO)cc1", "solubility kinetic": 39.3}, {"smiles": "COC(=O)CN1C(=O)N/C(=C/c2ccccc2OC)C1=O", "solubility kinetic": "> 43.5"}, {"smiles": "O=C(NC(c1ccccc1)c1ccccn1)c1cccc([N+](=O)[O-])c1", "note": "(stereo not given)", "solubility kinetic": 38.3}, {"smiles": "CCC(C)(C)NC(=O)C(OC(=O)c1ccco1)c1ccccc1F", "note": "(stereo not given)", "solubility kinetic": 22.1}, {"smiles": "O=C(c1ccccc1)N1CCCC(C(=O)N2CCN(c3ccccc3)CC2)C1", "note": "(stereo not given)", "solubility kinetic": 46.8}, {"smiles": "Cc1ccc(S(=O)(=O)NCCNc2ccccc2[N+](=O)[O-])cc1", "solubility kinetic": 1.1}, {"smiles": "CCc1sc(C(=O)NC(C)C2CCCO2)cc1Br", "note": "(stereo not given)", "solubility kinetic": 49.5}, {"smiles": "O=C(NCCCN1CCCC1=O)Nc1ccccc1F", "solubility kinetic": "> 41.9"}, {"smiles": "O=C(O)CC(NCc1ccco1)C(=O)OCCCl", "note": "(stereo not given)", "solubility kinetic": "> 41.4"}, {"smiles": "Cc1cccc(S(=O)(=O)Nc2ccncc2)c1", "solubility kinetic": 28.1}, {"smiles": "CSCCn1c(C(C)(C)C)cc(C(=O)O)c1C", "solubility kinetic": 31.3}, {"smiles": "Cc1ccc(NC(=O)C2CC(=O)N(C(C)C)C2)cc1Cl", "note": "(stereo not given)", "solubility kinetic": "> 44.2"}, {"smiles": "COc1cc2ccccc2cc1C(=O)Nc1ccc(O)cc1", "solubility kinetic": 0.8}, {"smiles": "Cc1cc(C(=O)Nc2ccc(F)cc2C)n(-c2ccccc2)n1", "solubility kinetic": "> 46.4"}, {"smiles": "On1c(-c2ccccc2)nc2ccccc21", "solubility kinetic": "> 31.5"}, {"smiles": "CCN(CC)CC(=O)Nc1scc2c1c(=O)oc1ccccc12", "solubility kinetic": "< 0.4"}, {"smiles": "Cc1cc(C)cc(NC(=S)NC(=O)C2CC2)c1", "solubility kinetic": 30}, {"smiles": "O=[N+]([O-])c1cccc(-c2nc3ccc([N+](=O)[O-])cc3[nH]2)c1", "solubility kinetic": 1.2}, {"smiles": "CCc1ccc2nc(Nc3ncc(C(C)=O)c(C)n3)nc(C)c2c1", "solubility kinetic": 6.9}, {"smiles": "O=C(/C=C/c1ccccc1[N+](=O)[O-])OCC(=O)N1CCCC1", "solubility kinetic": "> 45.6"}, {"smiles": "COc1cccc(OC)c1C(=O)Nc1ccc(Br)c(C(=O)c2ccccc2)c1", "solubility kinetic": 4.2}, {"smiles": "CC1CC(C)CN(C(=O)C2CC(=O)N(c3ccc(F)cc3)C2)C1", "note": "(stereo not given)", "solubility kinetic": 34.7}, {"smiles": "CC(C(=O)Nc1ccccc1)N1CCN(c2ccccn2)CC1", "note": "(stereo not given)", "solubility kinetic": 11.2}, {"smiles": "CN(C)S(=O)(=O)c1cccc(COC(=O)c2cnccn2)c1", "solubility kinetic": 41.7}, {"smiles": "COc1ccc(-n2nc(C)c3sc(C)nc3c2=O)cc1", "solubility kinetic": "> 43.1"}, {"smiles": "CCC1CCC2(CC1)NC(=O)N(CC(=O)NCc1ccc(Cl)cc1)C2=O", "note": "(stereo not given)", "solubility kinetic": 3.7}, {"smiles": "COc1cc(CNC2CCCCCCC2)ccc1OCC(N)=O", "solubility kinetic": "> 48.1"}, {"smiles": "CSc1ncccc1C(=O)OCC(=O)NC(C)CCc1ccccc1", "note": "(stereo not given)", "solubility kinetic": 29.1}, {"smiles": "Cc1onc(C(=O)Nc2cccc(C(F)(F)F)c2)c1[N+](=O)[O-]", "solubility kinetic": 32.4}, {"smiles": "Cc1cccc(C(=O)NC2CCCCCCC2)c1", "solubility kinetic": 8.9}, {"smiles": "O=C(c1ccc(Cl)c(S(=O)(=O)N2CCOCC2)c1)N1CCCC1", "solubility kinetic": "> 53.8"}, {"smiles": "Cc1ccc(NC(=O)N2CCc3ccccc3C2)cc1C", "solubility kinetic": 0.9}, {"smiles": "O=C(COC(=O)c1ccco1)Nc1cccc(S(=O)(=O)N2CCCCC2)c1", "solubility kinetic": 54.5}, {"smiles": "CN(C1(C)CCS(=O)(=O)C1)S(=O)(=O)c1ccc(F)cc1", "note": "(stereo not given)", "solubility kinetic": "> 48.2"}, {"smiles": "COc1ccc(-c2nc(-c3ccncc3)no2)c(OC)c1", "solubility kinetic": 6}, {"smiles": "CC1CN(C(=S)NC(=O)c2ccccc2)CC(C)O1", "note": "(stereo not given)", "solubility kinetic": "> 41.8"}, {"smiles": "C/C(O)=C(\\C#N)P(=O)(c1ccccc1)c1ccccc1", "solubility kinetic": "> 42.5"}, {"smiles": "Cc1ccc(OCC(=O)Nc2ccc3c(c2)CCC3)c([N+](=O)[O-])n1", "solubility kinetic": 2.1}, {"smiles": "Cl.Nc1nc(N)c2[nH]c(-c3ccccc3)nc2n1", "solubility kinetic": "> 39.4"}, {"smiles": "Cc1ccc(CNC(=O)C(c2ccccc2)c2ccccc2)cc1", "solubility kinetic": "< 0.7"}, {"smiles": "COc1cccc2cc(C(=O)OCC(=O)N3CC(C)OC(C)C3)c(=O)oc12", "note": "(stereo not given)", "solubility kinetic": "> 56.3"}, {"smiles": "Cc1cc(C)c(C(=O)NCC(=O)c2ccccc2)c(C)c1", "solubility kinetic": 8.8}, {"smiles": "COc1ccc(OC)c(/C=C/c2[nH]c(=O)[nH]c(=O)c2[N+](=O)[O-])c1", "solubility kinetic": 35.1}, {"smiles": "CSc1ccccc1-c1nc(-c2ccncc2)no1", "solubility kinetic": 1.2}, {"smiles": "Cc1nsc(N)c1C(=O)O", "solubility kinetic": "> 23.7"}, {"smiles": "OCCN(CCO)CC(O)COc1ccc(Br)cc1", "note": "(stereo not given)", "solubility kinetic": 6.7}, {"smiles": "COc1ccc(OC)c(S(=O)(=O)N2CCN3CCCC3C2)c1", "note": "(stereo not given)", "solubility kinetic": "> 49"}, {"smiles": "O=c1cc[nH]c2ccc(OC(F)(F)F)cc12", "solubility kinetic": "> 34.4"}, {"smiles": "Cc1cccc(NC(=O)c2cccnc2Cl)n1", "solubility kinetic": "> 37.2"}]}]}
